Assay results reported in US7820405B2, “Specific bacterial inclusions in bone marrow cells indicate systematic lupus erthematosus, and treatment for lupus” (Sphingomanas Research Partners, L.P., priority 2005, dated 2010).

Tested on: intra-erythrocytic bacterial structures (Mycoplasma haemosapiens)
Type: in vivo, human
Conditions: Patient A, during doxycycline 100 mg twice daily; declined from about 16% before therapy

C[C@H]1c2cccc(O)c2C(=O)C2=C(O)[C@]3(O)C(=O)C(C(N)=O)=C(O)[C@@H](N(C)C)[C@@H]3[C@@H](O)[C@@H]21 [doxycycline]
percentage of parasitized erythrocytes: approximately 8%
